Measured values as given in PubChem BioAssay AID248 (DTP/NCI, 2004).
Inconclusive results and toxic doses are left out. No stated cut-off is given here; in the data, active means T/C of 150% or more; inactive means T/C below 125%. Peptide text beside a SMILES is read from it. * marks the point of attachment. Cbz = O=C(OCc1ccccc1)*

System: L1210 leukemia ip in BDF1 mice, survival T/C
Experiment: NCI In Vivo Anticancer Drug Screen. Data for tumor model L1210 Leukemia (intraperitoneal) in B6D2F1 (BDF1) mice
Conditions: higher = longer survival
In short: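 Survival endpoint. Drug-treated group vs vehicle group, expressed as T divided by C. Tumor passaged by transplantation.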

[1] = endpoint: mean survival time, dose: 100.0 mg/kg/injection, schedule: Q01DX009 (ip), vehicle: Klucel (hydroxypropylcellulose) (HPC)
[2] = endpoint: mean survival time, dose: 200.0 mg/kg/injection, schedule: Q01DX009 (ip), vehicle: Klucel (hydroxypropylcellulose) (HPC)
[3] = endpoint: mean survival time, dose: 400.0 mg/kg/injection, schedule: Q01DX009 (ip), vehicle: Klucel (hydroxypropylcellulose) (HPC)
[4] = endpoint: mean survival time, dose: 50.0 mg/kg/injection, schedule: Q01DX001 (ip), vehicle: carboxymethylcellulose (CMC)
[5] = endpoint: mean survival time, dose: 100.0 mg/kg/injection, schedule: Q01DX001 (ip), vehicle: carboxymethylcellulose (CMC)
[6] = endpoint: mean survival time, dose: 200.0 mg/kg/injection, schedule: Q01DX001 (ip), vehicle: carboxymethylcellulose (CMC)
[7] = endpoint: mean survival time, dose: 400.0 mg/kg/injection, schedule: Q01DX001 (ip), vehicle: carboxymethylcellulose (CMC)
[8] = endpoint: mean survival time, dose: 100.0 mg/kg/injection, schedule: Q04DX003 (ip), vehicle: saline
[9] = endpoint: mean survival time, dose: 200.0 mg/kg/injection, schedule: Q04DX003 (ip), vehicle: saline
[10] = endpoint: mean survival time, dose: 400.0 mg/kg/injection, schedule: Q04DX003 (ip), vehicle: saline
[11] = endpoint: mean survival time, dose: 100.0 mg/kg/injection, schedule: Q01DX001 (ip), vehicle: saline
[12] = endpoint: mean survival time, dose: 200.0 mg/kg/injection, schedule: Q01DX001 (ip), vehicle: saline
[13] = endpoint: mean survival time, dose: 400.0 mg/kg/injection, schedule: Q01DX001 (ip), vehicle: saline
[14] = endpoint: mean survival time, dose: 100.0 mg/kg/injection, schedule: Q01DX001 (ip), vehicle: Klucel (hydroxypropylcellulose) (HPC)
[15] = endpoint: mean survival time, dose: 200.0 mg/kg/injection, schedule: Q01DX001 (ip), vehicle: Klucel (hydroxypropylcellulose) (HPC)
[16] = endpoint: mean survival time, dose: 400.0 mg/kg/injection, schedule: Q01DX001 (ip), vehicle: Klucel (hydroxypropylcellulose) (HPC)
[17] = endpoint: mean survival time, dose: 100.0 mg/kg/injection, schedule: Q04DX002 (ip), vehicle: Klucel (hydroxypropylcellulose) (HPC)
[18] = endpoint: mean survival time, dose: 200.0 mg/kg/injection, schedule: Q04DX002 (ip), vehicle: Klucel (hydroxypropylcellulose) (HPC)
[19] = endpoint: mean survival time, dose: 400.0 mg/kg/injection, schedule: Q04DX002 (ip), vehicle: Klucel (hydroxypropylcellulose) (HPC)
[20] = endpoint: mean survival time, dose: 100.0 mg/kg/injection, schedule: Q04DX003 (ip), vehicle: Klucel (hydroxypropylcellulose) (HPC)
[21] = endpoint: mean survival time, dose: 200.0 mg/kg/injection, schedule: Q04DX003 (ip), vehicle: Klucel (hydroxypropylcellulose) (HPC)
[22] = endpoint: mean survival time, dose: 400.0 mg/kg/injection, schedule: Q04DX003 (ip), vehicle: Klucel (hydroxypropylcellulose) (HPC)
[23] = endpoint: mean survival time, dose: 100.0 mg/kg/injection, schedule: Q01DX009 (ip), vehicle: saline with Tween-80
[24] = endpoint: mean survival time, dose: 200.0 mg/kg/injection, schedule: Q01DX009 (ip), vehicle: saline with Tween-80
[25] = endpoint: mean survival time, dose: 400.0 mg/kg/injection, schedule: Q01DX009 (ip), vehicle: saline with Tween-80
[26] = endpoint: mean survival time, dose: 100.0 mg/kg/injection, schedule: Q04DX003 (ip), vehicle: saline with Tween-80
[27] = endpoint: mean survival time, dose: 200.0 mg/kg/injection, schedule: Q04DX003 (ip), vehicle: saline with Tween-80
[28] = endpoint: mean survival time, dose: 400.0 mg/kg/injection, schedule: Q04DX003 (ip), vehicle: saline with Tween-80

Measured: T/C

COC(=O)C1CC(C(N)=O)CC1OC(C)=O (configuration not stated)
inactive: [1] 100 % of control | [2] 93 % of control | [3] 98 % of control

COc1ccc(C(N)=O)cc1
inactive: endpoint: mean survival time, dose: 100.0 mg/kg/injection, schedule: Q04DX002 (ip), vehicle: saline with Tween-80 94 % of control | endpoint: mean survival time, dose: 200.0 mg/kg/injection, schedule: Q04DX002 (ip), vehicle: saline with Tween-80 94 % of control | endpoint: mean survival time, dose: 400.0 mg/kg/injection, schedule: Q04DX002 (ip), vehicle: saline with Tween-80 109 % of control

Nc1nc(N)nc(CC(=O)O)n1
inactive: [4] 95 % of control | [5] 90 % of control | [6] 95 % of control | [7] 93 % of control

COc1ccc(Nc2nc(N)nc(N)c2N)cc1
inactive: endpoint: mean survival time, dose: 100.0 mg/kg/injection, schedule: Q01DX Z (ip), vehicle: saline 87 % of control

O=C1NCCCC1O (configuration not stated)
inactive: [4] 94 % of control | [5] 89 % of control | [6] 105 % of control | [7] 103 % of control

C1CC(=NN=C2CCSCC2)CCS1
inactive: [8] 96 % of control | [9] 94 % of control | [10] 123 % of control

Oc1ccccc1C=NCCN1CC1.Oc1ccccc1C=NCCN1CC1.[Co+2]
inactive: endpoint: mean survival time, dose: 20.0 mg/kg/injection, schedule: Q04DX002 (ip), vehicle: saline + alcohol 102 % of control | endpoint: mean survival time, dose: 40.0 mg/kg/injection, schedule: Q04DX002 (ip), vehicle: saline + alcohol 106 % of control | endpoint: mean survival time, dose: 80.0 mg/kg/injection, schedule: Q04DX002 (ip), vehicle: saline + alcohol 98 % of control

CC1=CC(=O)c2c(O)ccc(O)c2C1=O
inactive: endpoint: mean survival time, dose: 2.5 mg/kg/injection, schedule: Q04DX003 (ip), vehicle: other 95 % of control | endpoint: mean survival time, dose: 5.0 mg/kg/injection, schedule: Q01DX001 (ip), vehicle: saline 101 % of control | endpoint: mean survival time, dose: 5.0 mg/kg/injection, schedule: Q04DX003 (ip), vehicle: other 103 % of control | endpoint: mean survival time, dose: 10.0 mg/kg/injection, schedule: Q01DX001 (ip), vehicle: saline 97 % of control | endpoint: mean survival time, dose: 10.0 mg/kg/injection, schedule: Q04DX003 (ip), vehicle: other 94 % of control | endpoint: mean survival time, dose: 20.0 mg/kg/injection, schedule: Q01DX001 (ip), vehicle: saline 100 % of control | endpoint: mean survival time, dose: 40.0 mg/kg/injection, schedule: Q01DX001 (ip), vehicle: saline 102 % of control

O=C(c1cccnc1)c1cc(-c2ccccn2)c(=O)n2ccccc12
inactive: endpoint: median survival time, dose: 25.0 mg/kg/injection, schedule: Q01DX009 (ip), vehicle: saline with Tween-80 100 % of control | endpoint: median survival time, dose: 50.0 mg/kg/injection, schedule: Q01DX009 (ip), vehicle: saline with Tween-80 108 % of control | endpoint: median survival time, dose: 100.0 mg/kg/injection, schedule: Q01DX009 (ip), vehicle: saline with Tween-80 91 % of control | endpoint: median survival time, dose: 200.0 mg/kg/injection, schedule: Q01DX009 (ip), vehicle: saline with Tween-80 95 % of control | endpoint: median survival time, dose: 400.0 mg/kg/injection, schedule: Q01DX009 (ip), vehicle: saline with Tween-80 91 % of control

OC[C@@H]1CC[C@H](n2cnc3c(Cl)ncnc32)C1
inactive: [11] 103 % of control | [12] 101 % of control | [13] 101 % of control

CC1(C)OCC(C(OC(=O)c2ccc([N+](=O)[O-])cc2)C(OC(=O)c2ccc([N+](=O)[O-])cc2)C2COC(C)(C)O2)O1 (configuration not stated)
inactive: [14] 103 % of control | [15] 100 % of control | [16] 100 % of control

CCCCCCCCOC(=O)c1ccc2nc3cc4ccccc4cc3nc2c1
inactive: [17] 94 % of control | [18] 92 % of control | [19] 92 % of control

CC(=O)N(C(C)=O)c1ccc2c(c1)-n1cccc1C2=O
inactive: [20] 100 % of control | [21] 101 % of control | [22] 98 % of control

CC1=NN(c2ccccc2)C(=O)C1N=Nc1ccc(S(=O)(=O)Nc2nccc(C)n2)cc1 (configuration not stated)
inactive: [5] 98 % of control | [6] 98 % of control | [7] 88 % of control

C=CCn1c(-c2cccs2)nc2c(=S)nc[nH]c21
inactive: endpoint: mean survival time, dose: 65.0 mg/kg/injection, schedule: Q01DX009 (ip), vehicle: steriod suspending solution 95 % of control | endpoint: mean survival time, dose: 180.0 mg/kg/injection, schedule: Q01DX009 (ip), vehicle: steriod suspending solution 88 % of control | endpoint: mean survival time, dose: 400.0 mg/kg/injection, schedule: Q01DX001 (ip), vehicle: steriod suspending solution 89 % of control | endpoint: mean survival time, dose: 800.0 mg/kg/injection, schedule: Q01DX001 (ip), vehicle: steriod suspending solution 89 % of control

CC1CCC2(OC1)OC1CC3C4CCC5CC(O)CCC5(C)C4CC(=O)OC3(C)C1C2C (configuration not stated)
inactive: endpoint: mean survival time, dose: 100.0 mg/kg/injection, schedule: Q01DX001 (ip), vehicle: other 97 % of control | endpoint: mean survival time, dose: 200.0 mg/kg/injection, schedule: Q01DX001 (ip), vehicle: other 87 % of control | endpoint: mean survival time, dose: 400.0 mg/kg/injection, schedule: Q01DX001 (ip), vehicle: other 92 % of control

Oc1ccc(/C=N/N2CCN(/N=C/c3ccc(O)cc3O)CC2)c(O)c1
inactive: [11] 97 % of control | [12] 94 % of control | [13] 100 % of control

O=C(CCl)Nc1ccccn1
inactive: [8] 97 % of control | [9] 97 % of control | [10] 88 % of control

CS(=O)(=O)OC1CCCCCCC1OS(C)(=O)=O (configuration not stated)
inactive: endpoint: mean survival time, dose: 50.0 mg/kg/injection, schedule: Q04DX003 (ip), vehicle: Klucel (hydroxypropylcellulose) (HPC) 103 % of control | [14] 98 % of control | [20] 104 % of control | [15] 98 % of control | [21] 98 % of control | [16] 104 % of control | [22] 104 % of control

CC1(C)C2CCC1(C)C(NCc1cc(Cl)cc(Cl)c1O)C2 (configuration not stated)
inactive: [20] 92 % of control | [21] 103 % of control | [22] 98 % of control

CC(C)CC(=O)CC(O)C(Cl)(Cl)Cl (configuration not stated)
inactive: endpoint: mean survival time, dose: 50.0 mg/kg/injection, schedule: Q04DX002 (ip), vehicle: Klucel (hydroxypropylcellulose) (HPC) 104 % of control | [17] 93 % of control | [18] 93 % of control | [19] 101 % of control

O=[N+]([O-])c1ccc(C=Nc2ccc([N+](=O)[O-])cc2)cc1
inactive: [8] 90 % of control | [9] 86 % of control | [10] 93 % of control

CCOC(=O)CNC(=O)CNC(=O)CNC(=O)OCc1ccccc1 (Cbz-Gly-Gly-Gly-OEt)
inactive: [11] 93 % of control | [12] 88 % of control | [13] 94 % of control

C=COCCOC
inactive: [23] 104 % of control | [24] 101 % of control | [25] 107 % of control

O=[N+]([O-])c1ccc(Oc2ccc(S(=O)(=O)F)cc2)cc1
inactive: [1] 106 % of control | [2] 97 % of control | [3] 98 % of control

CN(C)C(=O)Nc1cccc(OC(=O)NC2CC2)c1
inactive: [26] 96 % of control | [27] 95 % of control | [28] 90 % of control

CCCCCCCCSCCC(=O)O
inactive: [23] 97 % of control | [26] 97 % of control | [24] 88 % of control | [27] 92 % of control | [28] 94 % of control

COc1cc(C(=O)N2CCN(Cc3ccccc3)CC2)cc(OC)c1OC
inactive: [20] 93 % of control | [21] 107 % of control | [22] 93 % of control

CC(=O)Oc1ccc(C2C3=C(COC3=O)CC3=C2C(=O)OC3)cc1
inactive: [23] 104 % of control | [26] 96 % of control | [24] 100 % of control | [27] 97 % of control | [25] 96 % of control | [28] 96 % of control

O=[N+]([O-])c1ccc(O)c(CNCCCNCc2cc([N+](=O)[O-])ccc2O)c1
inactive: [11] 102 % of control | [12] 98 % of control | [13] 102 % of control
